pIC50: −log10 of the molar value.
Target: T1, Interleukin-1 receptor-associated kinase 4 (Homo sapiens, UniProt Q9NWZ3)
T1 sequence (Q9NWZ3 whole entry): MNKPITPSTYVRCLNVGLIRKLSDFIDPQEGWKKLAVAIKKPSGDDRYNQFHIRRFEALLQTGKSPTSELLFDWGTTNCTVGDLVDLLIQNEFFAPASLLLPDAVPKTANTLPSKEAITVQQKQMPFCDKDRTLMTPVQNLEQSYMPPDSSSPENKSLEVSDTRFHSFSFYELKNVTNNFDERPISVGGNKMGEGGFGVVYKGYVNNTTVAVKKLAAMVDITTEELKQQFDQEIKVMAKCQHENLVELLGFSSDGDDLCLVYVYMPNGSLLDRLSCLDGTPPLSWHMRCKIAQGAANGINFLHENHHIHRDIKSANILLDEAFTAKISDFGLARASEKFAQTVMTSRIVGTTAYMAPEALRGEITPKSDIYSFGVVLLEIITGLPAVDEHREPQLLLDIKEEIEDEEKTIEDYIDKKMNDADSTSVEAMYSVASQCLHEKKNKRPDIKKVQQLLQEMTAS
Experiment: In Vitro Enzymatic Activity Evaluation: The inhibitory activity of the test compounds against human IRAK4 was evaluated by measuring IC50 values in a 33P-labeled kinase activity assay (Reaction Biology Corp).Buffer conditions: 20 mM Hepes (pH 7.5), 10 mM MgCl2, 1 mM EGTA, 0.02% Brij35, 0.02 mg/mL BSA, 0.1 mM Na3VO4, 2 mM DTT, 1% DMSO.Procedures: The test compound was dissolved in DMSO at room temperature to prepare a 10 mM solution for later use. The substrate was dissolved in fresh buffer, to which the kinase was added and mixed well. The DMSO solution containing the test compound was added to the above mixed reaction system by an acoustic technique (Echo 550). The concentrations of the compounds in reaction system were 10 μM, 3.33 μM, 1.11 μM, 0.370 μM, 0.123 μM, 41.2 nM, 13.7 nM, 4.57 nM, 1.52 nM, and 0.508 nM. After 15 minutes of incubation, the reaction was started by adding 33P-ATP (activity: 0.01 μCi/μL; the corresponding concentration is listed in Table 1). Supplier's catalog number, lot number and concentration information in the reaction system for IRAK4 and its substrate are listed in Table 1. After 120 minutes of reaction at room temperature, the resulting solution was loaded on P81 ion exchange chromatography paper sheet (Whatman #3698-915). […]

Structure (SMILES) | pIC50
Cc1nsc2nc(Nc3cnn(C4CCOCC4)c3)nc(N[C@H]3CC[C@H](N4C[C@H]5C[C@@H]4CN5C(C)C)CC3)c12 | 6.64
Cc1nsc2nc(Nc3cnn(C4(C)COC4)c3)nc(N[C@H]3CC[C@H](N4CCOCC4)CC3)c12 | 7.87
